Reference: patent US8952192B2, “Phosphorylated and branched dihydroxy-pentane-dione (DPD) analogs as quorum sensing inhibitors in bacteria” (University of Maryland, College Park, priority 2011, dated 2015)
Entries after “also recorded” stand apart in the source; their conditions may differ.

Legend:
[1] = test system: lsr expression in E. coli (lsr-lacZ reporter strains); assay: QS response (lsr expression): AI-2 dependent β-galactosidase production, Miller assay; format: cell-based, Escherichia coli; conditions: for IC50: concentration reducing lsr expression (β-galactosidase production) to 50% in the presence of 20 μM exogenously added synthetic DPD, read-out: IC50 of analog (nM) to inhibit QS in E. coli; for effect on native lsr expression (QS response): E. coli ZK126 pLW11 (luxS+), cells produce their own AI-2; for inhibition of AI-2-mediated lsr expression (β-galactosidase), in words: 20 μM AI-2 (DPD) + 20 μM analog
Method: (§1) The panel of C1-alkyl analogs was screened to identify QS modulators in the enteric bacteria E. coli and S. typhimurium. Transcription of the QS associated lsr operon, by using lsr-lacZ reporter strains (Table 2) which produce β-galactosidase in response to added AI-2 was monitored. In order to first establish if the analogs were agonists or antagonists in the QS circuit, the analogs were incubated with E. coli LW7 pLW11 and S. typhimurium MET715 (FIG. 19a-b) both of which are luxS^−. None of the analogs, except ethyl-DPD behaved as agonists for lsr expression. Previous studies investigating AI-2 antagonism in P. aeruginosa or in S. typhimurium were carried out using chemically synthesized AI-2 added to luxS^− cells. […] The same trends were obtained by adding a 1:1 ratio of enzymatically synthesized AI-2 and DPD analogs to the luxS^− strains E. coli LW7 pLW11 and S. typhimurium MET715 (FIG. 11a-b). None of the tested DPD analogs were bacteriocidal or bacteriostatic as the OD600 values of E. coli ZK126 pLW11 and S. typhimurium MET708 in the presence and absence of the analogs were similar (FIG. 10). Though the QS circuitry of the enteric organisms, E. coli and S. typhimurium are homologous they respond differently to the DPD analogs. The E. coli QS circuitry is susceptible to being silenced by a variety of DPD analogs of different shapes and sizes whereas in S. typhimurium, only a handful of DPD analogs could antagonize the action of AI-2. […] Isobutyl-DPD emerged as an effective and non-species-specific quencher; causing significant lsr expression knockdowns in both E. coli and S. typhimurium.
(§2) The QS response indicated by lsr gene expression was analyzed in pure culture studies by culturing E. coli LW7 pLW11, E. coli ZK126 pLW11 and S. typhimurium MET708, S. typhimurium MET715 overnight in LB medium supplemented with appropriate antibiotics as stated previously. These cells were then diluted into fresh LB medium (with antibiotics) and grown to an OD600 of 0.8-1.0 at 30° C., 250 rpm. Cells were then collected by centrifugation at 10,000×g for 10 minutes, and resuspended in 10 mM phosphate buffer. AI-2 (20 μM) and the respective analog (20 μM) were added to the E. coli or S. typhimurium suspension for 2 hours at 37° C. AI-2 dependent β-galactosidase production was quantified by the Miller assay.
(§3) The QS response indicated by lsr gene expression was analyzed in pure culture studies by culturing E. coli LW7 pLW11 and S. typhimurium MET715 overnight at 30° C. in LB medium supplemented with appropriate antibiotics as stated previously. These cells were then diluted into fresh LB medium (with antibiotics) and grown to an OD600 of 0.4-0.8 at 37° C., 250 rpm. Cells were then collected by centrifugation at 10,000×g for 10 min and resuspended in 10 mM phosphate buffer. AI-2 (20 μM) and the respective analog (20 μM) were added to the E. coli or S. typhimurium suspension for 2 h at 37° C. AI-2 dependent β-galactosidase production was quantified by the Miller assay.
(§4) The QS response indicated by lsr gene expression was analyzed in pure culture studies by culturing E. coli LW7 pLW11, E. coli ZK126 pLW11 and S. typhimurium MET708, S. typhimurium MET715 overnight in LB medium individually supplemented with appropriate antibiotics, as specified above. These cells were diluted into fresh LB medium (with antibiotics) and grown to an OD600 of 0.8-1.0 at 30° C., 250 rpm. Cells were collected by centrifugation at 10,000×g for 10 minutes, and resuspended in 10 mM phosphate buffer. AI-2 (20 μM) and the respective analog (20 μM) were added to the E. coli or S. typhimurium suspension for 2 hours at 37° C. AI-2 dependent β-galactosidase production was quantified by the Miller assay.

[2] = target: lsr expression in S. typhimurium (lsr-lacZ reporter strains); assay: as above; format: cell-based, Salmonella typhimurium; conditions: for IC50: concentration reducing lsr expression (β-galactosidase production) to 50% in the presence of 20 μM exogenously added synthetic DPD, read-out: IC50 of analog (nM) to inhibit QS in S. typhimurium
Method: as §1, §2, §3, §4

[3] = test system: pyocyanin production in P. aeruginosa PAO1; assay: QS response (pyocyanin production); format: cell-based; conditions: pure culture P. aeruginosa PAO1, DPD analogs (100 μM)
Method: Identifying Modulators of P. aeruginosa QS. DPD analogs (100 μM) were screened for activity in P. aeruginosa PAO1 by monitoring pyocyanin production (FIG. 34b and FIG. 38).
The cells were grown with the analog at 3 mL total volume in 50 mL flasks in LB medium, with continuous shaking. Between 22-24 h, when the cells turned green after pyocyanin secretion, the pigment was extracted. The pyocyanin quantification assay was conducted as described. 2 mL chloroform was added to the 3 mL culture and pipetted up and down. 1 mL of the chloroform was transferred to a separate tube and the pyocyanin was re-extracted into 200 μL of 0.2 M HCl. The absorbance of the solution was measured at OD 520 nm. To calculate the concentration of pyocyanin extracted as μg/mL, the OD at 520 nm was multiplied by 17.07.

E. coli = assay: DPD analogs and representative bacterial species affected (Table 1); format: cell-based; design: key: x: DPD Analogs and representative bacterial species affected
V. harveyi = assay: as above; format: cell-based; design: key: x: DPD Analogs and representative bacterial species affected
S. mutans = assay: as above; format: cell-based; design: key: x: DPD Analogs and representative bacterial species affected
LsrK = target: T1, LsrK (Escherichia coli, UniProt P77432); assay: In vitro phosphorylation of analogs by LsrK (TLC, autoradiography); format: biochemical, E. coli; conditions: for phosphorylation by E. coli LsrK: incubation with LsrK in vitro for one hour (Example 6)
T1 construct: made in house; host or cells: E. coli BL21
Method: LsrK was purified and from E. coli BL21 pET200-LsrK as described before. Phosphorylated analogs were synthesized by incubating 1 μM) LsrK with 40 μM ATP (Roche), […] of [γ-^32P] […] A 5 μL aliquot was then spotted onto a cellulose TLC plate (Selecto Scientific). The plate was developed using 0.8 M LiCl as the solvent, air dried and developed via autoradiography.
LsrK was purified from E. coli BL21 pET200-LsrK as described before. Phosphorylated analogs were synthesized by incubating (1 μM) LsrK with (40 μM) ATP (Roche), ([…]) of [P^32] […] An aliquot (2.5 μL) was then spotted onto a cellulose TLC plate (Selecto Scientific). The plate was developed using 0.8 M LiCl as the solvent, air dried and developed via autoradiography.

S. typhimurium MET708 = assay: Trispecies synthetic ecosystem (S. typhimurium, V. harveyi, E. coli): β-galactosidase activity; format: cell-based; conditions: trispecies co-culture, lacZ activity after 4 hours
Description: (§5) To investigate the effect of the DPD analogs in a mixed bacterial environment, a synthetic ecosystem composed of three different bacterial populations was assembled. Specifically, S. typhimurium MET708, V. harveyi BB170 and E. coli W3110 (pCT6), each luxS^+ (Table 2), and each producing their native AI-2 were co-cultured in the same tubes. By design, each species was selected so that a different reporter probe would indicate the specific bacterium's QS response: S. typhimurium (MET708) expresses β-galactosidase; V. harveyi (BB170) elicits bioluminescience; and E. coli (W331) are engineered to synthesize GFP. In this way, their responses can be differentiated and quantified in response to AI-2.
(§6) The S. typhimurium MET708, V. harveyi BB170 and E. coli W3110 pCT6 were each cultured separately overnight in LM medium supplemented with the appropriate antibiotic. […] The V. harveyi luminescence response was measured after 2.5 hours. The S. typhimurium lacZ (β-galactosidase) activity was measured after 4 hours. The E. coli response was determined after 8 hours, by fixing the cells with 1:1 cold 4% paraformaldehyde and using flow cytometric analysis. Samples were analyzed by flow cytometery (FACS Canto II, BD 394 Biosciences), with 20,000 gated events analyzed per sample.

V. harveyi BB170 = assay: QS response (bioluminescence), trispecies synthetic ecosystem; format: cell-based; conditions: LM media
Method: The effect of isobutyl-DPD or isopropyl-DPD on QS associated bioluminescence production by V. harveyi was recorded by measuring the light production from reporter strain, V. harveyi BB170. The analogs were added at concentrations of (20 μM or 40 μM) to V. harveyi BB170 which was assayed as previously described.
The S. typhimurium MET708, V. harveyi BB170 and E. coli W3110 pCT6 were each cultured separately overnight in LM medium supplemented with the appropriate antibiotic. V. harveyi BB170, S. typhimurium MET708 and E. coli MDAI-2 were diluted (1:4:8), respectively, into a single 1 ml volume of fresh LM medium without antibiotics. The co-culture was supplemented with either 20 μM or 40 μM analog initially and again after 3 and 5 hours of growth. The V. harveyi luminescence response was measured after 2.5 hours. The S. typhimurium lacZ (β-galactosidase) activity was measured after 4 hours. The E. coli response was determined after 8 hours, by fixing the cells with 1:1 cold 4% paraformaldehyde and using flow cytometric analysis. Samples were analyzed by flow cytometery (FACS Canto II, BD 394 Biosciences), with 20,000 gated events analyzed per sample.

E. coli W3110 pCT6 = assay: Trispecies synthetic ecosystem: AI-2 stimulated GFP expression, flow cytometry; format: cell-based; conditions: trispecies co-culture, flow cytometry after 8 hours; 60.7% without analog
Description: as §5, §6

[4] = test system: lsr expression in E. coli (lsr-lacZ reporter strains); assay: QS response (lsr expression): AI-2 dependent β-galactosidase production, Miller assay; format: cell-based, Escherichia coli; conditions: E. coli SH3 (lsrK−, luxS−), 20 μM ethyl-DPD

T1 sequence (P77432 whole entry): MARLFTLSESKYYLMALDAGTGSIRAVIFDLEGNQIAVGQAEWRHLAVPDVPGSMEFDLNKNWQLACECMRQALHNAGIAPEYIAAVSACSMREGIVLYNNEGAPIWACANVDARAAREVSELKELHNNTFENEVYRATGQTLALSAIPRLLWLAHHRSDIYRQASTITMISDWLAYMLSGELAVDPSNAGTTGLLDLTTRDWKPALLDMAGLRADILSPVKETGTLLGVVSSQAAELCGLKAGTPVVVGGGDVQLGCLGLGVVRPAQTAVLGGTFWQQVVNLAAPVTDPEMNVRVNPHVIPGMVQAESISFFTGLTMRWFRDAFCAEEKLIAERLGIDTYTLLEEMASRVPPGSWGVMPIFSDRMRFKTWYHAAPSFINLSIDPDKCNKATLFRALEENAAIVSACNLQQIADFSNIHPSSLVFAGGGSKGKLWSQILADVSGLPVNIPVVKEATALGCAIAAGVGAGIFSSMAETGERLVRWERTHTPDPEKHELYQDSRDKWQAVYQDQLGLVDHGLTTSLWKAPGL

## CCCCCCCC(=O)C(=O)[C@@H](O)CO [Heptyl-DPD, heptyl-DPD]
[1]
  IC50: 15900 nM
[2]
  IC50: > 40000 nM
[3]
  inhibition of pyocyanin production: some inhibition
E. coli
  bacterial species affected: E. coli: x

## CCCCC(=O)C(=O)[C@@H](O)CO [Butyl-DPD, butyl-DPD]
[1]
  IC50: 2970 nM
[2]; S. typhimurium MET708 (luxS+), cells produce their own AI-2
  effect on native lsr expression (QS response): considerable QS response reduction; also recorded: significantly inhibited signaling
[2]
  IC50: > 40000 nM
V. harveyi
  bacterial species affected: V. harveyi: x
E. coli
  bacterial species affected: E. coli: x

## CCCC(=O)C(=O)[C@@H](O)CO [propyl-DPD]
[1]
  effect on native lsr expression (QS response): significant knockdown
V. harveyi
  bacterial species affected: V. harveyi: x
E. coli
  bacterial species affected: E. coli: x

## O=C(C(=O)C(O)CO)c1ccco1 (stereo not shown) [furanosyl-DPD, Furanyl DPD]
[1]; E. coli LW7 pLW11 (luxS−)
  inhibition of AI-2-mediated lsr expression (β-galactosidase), in words: minimal
S. mutans
  bacterial species affected: S. mutans: x

## CC(C)C(=O)C(=O)C(O)CO (stereo not shown) [isopropyl-DPD]
[1]
  effect on native lsr expression (QS response): substantial reduction; also recorded: partial antagonist
LsrK; incubation with LsrK and excess ATP for 2 hours (Example 1)
  phosphorylation by LsrK: phosphorylated
S. typhimurium MET708
  reduction of the S. typhimurium response, in words: unable to cause any reduction
V. harveyi BB170; 20 μM
  decrease of bioluminescence in V. harveyi: 50%
V. harveyi BB170; 40 μM
  decrease of bioluminescence in V. harveyi: 50%
E. coli W3110 pCT6
  QS positive (green, GFP) cells of the E. coli population after analog addition: 21.4%
E. coli
  bacterial species affected: E. coli: x

## CCC(=O)C(=O)[C@@H](O)CO [ethyl-DPD]
[1]; E. coli LW7 pLW11 (luxS−), analog only, no AI-2 added
  agonist activity for lsr expression: agonist
[2]; S. typhimurium MET715 (luxS−), analog only, no AI-2 added
  agonist activity for lsr expression: agonist
V. harveyi
  bacterial species affected: V. harveyi: x
E. coli
  bacterial species affected: E. coli: x
[4]
  lsr transcription in LsrK knockout strain: did not initiate lsr transcription

## O=C(C(=O)C1CCC1)C(O)CO (stereo not shown) [Cyclobutyl-DPD, Cyclobutyl DPD]
[1]; E. coli LW7 pLW11 (luxS−)
  inhibition of AI-2-mediated lsr expression (β-galactosidase), in words: inhibit lsr expression
LsrK
  phosphorylation by E. coli LsrK: significantly phosphorylated
S. mutans
  bacterial species affected: S. mutans: x

## O=C(C(=O)C1CCCCC1)C(O)CO (stereo not shown) [Cyclohexyl-DPD, cyclohexyl-DPD]
[1]; E. coli LW7 pLW11 (luxS−)
  inhibition of AI-2-mediated lsr expression (β-galactosidase), in words: attenuated lsr expression in E. coli to a lesser extent
[2]; S. typhimurium MET715 (luxS−), 20 μM AI-2 (DPD) + 20 μM analog
  effect on AI-2-mediated lsr expression (β-galactosidase), in words: increased expression
LsrK
  phosphorylation by E. coli LsrK: weakly phosphorylated
LsrK; listed as cyclohexyl
  phosphorylation by E. coli LsrK: not phosphorylated
V. harveyi
  bacterial species affected: V. harveyi: x
E. coli
  bacterial species affected: E. coli: x

## CCCCCCC(=O)C(=O)[C@@H](O)CO [Hexyl DPD]
V. harveyi
  bacterial species affected: V. harveyi: x
E. coli
  bacterial species affected: E. coli: x
